Data published in publication PMC6886798, “Expression of myeloid Src-family kinases is associated with poor prognosis in AML and influences Flt3-ITD kinase inhibitor acquired resistance” (PLoS ONE, 2019).

What was measured:
Assay in all cases: KINOMEscan
Assay type in all cases: binding
Conditions in all cases: 1.0 µM
[1] = biological target: T1, FRK (Homo sapiens, UniProt P42685)
T1 construct: purchased Eurofins/DiscoverX KINOMEscan scanMAX
Method: (§1) Kinase retention to the immobilized ligand is then measured using quantitative real-time PCR for each kinase-specific DNA barcode.

[2] = biological target: T2, FLT3(N841I) (Homo sapiens, UniProt P36888, N841I)
T2 construct: purchased Eurofins/DiscoverX KINOMEscan scanMAX
Method: as §1

[3] = biological target: T3, STK33 (Homo sapiens, UniProt Q9BYT3)
T3 construct: purchased Eurofins/DiscoverX KINOMEscan scanMAX
Method: as §1

[4] = biological target: T4, KIT-autoinhibited (Homo sapiens, UniProt P10721)
T4 construct: purchased Eurofins/DiscoverX KINOMEscan scanMAX
Method: as §1

[5] = biological target: T5, CASK (Homo sapiens, UniProt O14936)
T5 construct: purchased Eurofins/DiscoverX KINOMEscan scanMAX
Method: as §1

[6] = biological target: T6, PCTK1 (Homo sapiens, UniProt Q00536)
T6 construct: purchased Eurofins/DiscoverX KINOMEscan scanMAX
Method: as §1

[7] = biological target: T7, RSK2(Kin.Dom.2-C-terminal) (Homo sapiens, UniProt P51812)
T7 construct: RSK2(Kin.Dom.2-C-terminal); purchased Eurofins/DiscoverX KINOMEscan scanMAX
Method: as §1

[8] = biological target: T8, MAP3K2 (Homo sapiens, UniProt Q9Y2U5)
T8 construct: purchased Eurofins/DiscoverX KINOMEscan scanMAX
Method: as §1

[9] = biological target: T9, SRC (Homo sapiens, UniProt P12931)
T9 construct: purchased Eurofins/DiscoverX KINOMEscan scanMAX
Method: as §1

[10] = biological target: T10, FLT3-autoinhibited (Homo sapiens, UniProt P36888)
T10 construct: purchased Eurofins/DiscoverX KINOMEscan scanMAX
Method: as §1

[11] = biological target: T11, CDC2L2 (Homo sapiens, UniProt Q9UQ88)
T11 construct: purchased Eurofins/DiscoverX KINOMEscan scanMAX
Method: as §1

[12] = biological target: T12, ADCK3 (Homo sapiens, UniProt Q8NI60)
T12 construct: purchased Eurofins/DiscoverX KINOMEscan scanMAX
Method: as §1

[13] = biological target: T13, CAMK2A (Homo sapiens, UniProt Q9UQM7)
T13 construct: purchased Eurofins/DiscoverX KINOMEscan scanMAX
Method: as §1

[14] = biological target: T14, CSF1R (Homo sapiens, UniProt P07333)
T14 construct: purchased Eurofins/DiscoverX KINOMEscan scanMAX
Method: as §1

[15] = biological target: T15, NEK4 (Homo sapiens, UniProt P51957)
T15 construct: purchased Eurofins/DiscoverX KINOMEscan scanMAX
Method: as §1

[16] = biological target: T16, BRK (Homo sapiens, UniProt Q13882)
T16 construct: purchased Eurofins/DiscoverX KINOMEscan scanMAX
Method: as §1

[17] = biological target: T17, DCAMKL2 (Homo sapiens, UniProt Q8N568)
T17 construct: purchased Eurofins/DiscoverX KINOMEscan scanMAX
Method: as §1

[18] = biological target: T18, IKK-alpha (Homo sapiens, UniProt O15111)
T18 construct: purchased Eurofins/DiscoverX KINOMEscan scanMAX
Method: as §1

[19] = biological target: T19, PKN2 (Homo sapiens, UniProt Q16513)
T19 construct: purchased Eurofins/DiscoverX KINOMEscan scanMAX
Method: as §1

[20] = biological target: T20, DYRK1B (Homo sapiens, UniProt Q9Y463)
T20 construct: purchased Eurofins/DiscoverX KINOMEscan scanMAX
Method: as §1

[21] = biological target: T21, JNK2 (Homo sapiens, UniProt P45984)
T21 construct: purchased Eurofins/DiscoverX KINOMEscan scanMAX
Method: as §1

[22] = biological target: T22, IKK-beta (Homo sapiens, UniProt O14920)
T22 construct: purchased Eurofins/DiscoverX KINOMEscan scanMAX
Method: as §1

[23] = biological target: T23, TRKB (Homo sapiens, UniProt Q16620)
T23 construct: purchased Eurofins/DiscoverX KINOMEscan scanMAX
Method: as §1

[24] = biological target: T24, CLK1 (Homo sapiens, UniProt P49759)
T24 construct: purchased Eurofins/DiscoverX KINOMEscan scanMAX
Method: as §1

[25] = biological target: T25, CDK5 (Homo sapiens, UniProt Q00535)
T25 construct: purchased Eurofins/DiscoverX KINOMEscan scanMAX
Method: as §1

[26] = biological target: T26, TAOK1 (Homo sapiens, UniProt Q7L7X3)
T26 construct: purchased Eurofins/DiscoverX KINOMEscan scanMAX
Method: as §1

[27] = biological target: T27, SIK (Homo sapiens, UniProt P57059)
T27 construct: purchased Eurofins/DiscoverX KINOMEscan scanMAX
Method: as §1

[28] = biological target: T28, PRKCI (Homo sapiens, UniProt P41743)
T28 construct: purchased Eurofins/DiscoverX KINOMEscan scanMAX
Method: as §1

[29] = biological target: T29, MAST1 (Homo sapiens, UniProt Q9Y2H9)
T29 construct: purchased Eurofins/DiscoverX KINOMEscan scanMAX
Method: as §1

[30] = biological target: T30, GRK1 (Homo sapiens, UniProt Q15835)
T30 construct: purchased Eurofins/DiscoverX KINOMEscan scanMAX
Method: as §1

[31] = biological target: T31, STK35 (Homo sapiens, UniProt Q8TDR2)
T31 construct: purchased Eurofins/DiscoverX KINOMEscan scanMAX
Method: as §1

[32] = biological target: T32, JAK3(JH1domain-catalytic) (Homo sapiens, UniProt P52333)
T32 construct: JAK3(JH1domain-catalytic); purchased Eurofins/DiscoverX KINOMEscan scanMAX
Method: as §1

[33] = biological target: T33, MAP4K3 (Homo sapiens, UniProt Q8IVH8)
T33 construct: purchased Eurofins/DiscoverX KINOMEscan scanMAX
Method: as §1

[34] = biological target: T34, MAP4K5 (Homo sapiens, UniProt Q9Y4K4)
T34 construct: purchased Eurofins/DiscoverX KINOMEscan scanMAX
Method: as §1

[35] = biological target: T35, MYLK2 (Homo sapiens, UniProt Q9H1R3)
T35 construct: purchased Eurofins/DiscoverX KINOMEscan scanMAX
Method: as §1

[36] = biological target: T36, RIOK1 (Homo sapiens, UniProt Q9BRS2)
T36 construct: purchased Eurofins/DiscoverX KINOMEscan scanMAX
Method: as §1

[37] = biological target: T37, MAPKAPK5 (Homo sapiens, UniProt Q8IW41)
T37 construct: purchased Eurofins/DiscoverX KINOMEscan scanMAX
Method: as §1

[38] = biological target: T38, PIK4CB (Homo sapiens, UniProt Q9UBF8)
T38 construct: purchased Eurofins/DiscoverX KINOMEscan scanMAX
Method: as §1

[39] = biological target: T39, CAMK1G (Homo sapiens, UniProt Q96NX5)
T39 construct: purchased Eurofins/DiscoverX KINOMEscan scanMAX
Method: as §1

[40] = biological target: T40, PCTK3 (Homo sapiens, UniProt Q07002)
T40 construct: purchased Eurofins/DiscoverX KINOMEscan scanMAX
Method: as §1

[41] = biological target: T41, PRKX (Homo sapiens, UniProt P51817)
T41 construct: purchased Eurofins/DiscoverX KINOMEscan scanMAX
Method: as §1

[42] = biological target: T42, YANK1 (Homo sapiens, UniProt Q8WU08)
T42 construct: DNA tag (qPCR barcode); purchased Eurofins/DiscoverX KINOMEscan scanMAX
Method: as §1

T12 sequence (Q8NI60 163-647): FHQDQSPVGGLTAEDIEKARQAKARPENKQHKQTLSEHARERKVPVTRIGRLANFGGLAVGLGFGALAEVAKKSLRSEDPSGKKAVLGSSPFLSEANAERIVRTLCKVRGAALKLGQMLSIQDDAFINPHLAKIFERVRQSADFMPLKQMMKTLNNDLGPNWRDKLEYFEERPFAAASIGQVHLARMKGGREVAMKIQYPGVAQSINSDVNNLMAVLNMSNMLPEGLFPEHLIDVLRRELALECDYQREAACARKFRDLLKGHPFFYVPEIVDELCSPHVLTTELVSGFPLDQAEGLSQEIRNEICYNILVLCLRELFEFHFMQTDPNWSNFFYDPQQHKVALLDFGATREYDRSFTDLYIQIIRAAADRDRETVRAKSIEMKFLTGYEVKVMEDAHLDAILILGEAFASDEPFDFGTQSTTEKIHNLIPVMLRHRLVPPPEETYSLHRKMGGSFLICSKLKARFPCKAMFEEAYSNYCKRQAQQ
T16 sequence (Q13882 whole entry): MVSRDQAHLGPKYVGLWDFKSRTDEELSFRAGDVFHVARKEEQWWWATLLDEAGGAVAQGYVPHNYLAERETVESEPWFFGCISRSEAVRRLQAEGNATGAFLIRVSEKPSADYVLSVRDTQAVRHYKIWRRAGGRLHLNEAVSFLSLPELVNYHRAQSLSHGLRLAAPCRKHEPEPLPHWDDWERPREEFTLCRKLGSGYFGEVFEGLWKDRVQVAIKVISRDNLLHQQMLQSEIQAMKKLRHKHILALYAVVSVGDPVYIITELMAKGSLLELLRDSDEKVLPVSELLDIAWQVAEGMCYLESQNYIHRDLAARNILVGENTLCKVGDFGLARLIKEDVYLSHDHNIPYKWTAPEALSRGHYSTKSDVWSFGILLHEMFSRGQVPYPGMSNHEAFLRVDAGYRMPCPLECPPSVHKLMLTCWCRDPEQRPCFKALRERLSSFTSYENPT
T32 sequence (P52333 813-1124 limits assumed): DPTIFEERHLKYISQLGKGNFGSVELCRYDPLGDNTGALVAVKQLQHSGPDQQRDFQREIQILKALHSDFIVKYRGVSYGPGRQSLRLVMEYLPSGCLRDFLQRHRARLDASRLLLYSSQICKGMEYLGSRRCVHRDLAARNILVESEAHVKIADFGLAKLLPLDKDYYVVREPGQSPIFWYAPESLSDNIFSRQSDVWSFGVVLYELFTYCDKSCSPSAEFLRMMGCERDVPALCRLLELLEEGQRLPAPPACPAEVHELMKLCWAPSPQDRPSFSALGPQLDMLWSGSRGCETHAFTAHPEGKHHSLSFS
T37 sequence (Q8IW41 whole entry): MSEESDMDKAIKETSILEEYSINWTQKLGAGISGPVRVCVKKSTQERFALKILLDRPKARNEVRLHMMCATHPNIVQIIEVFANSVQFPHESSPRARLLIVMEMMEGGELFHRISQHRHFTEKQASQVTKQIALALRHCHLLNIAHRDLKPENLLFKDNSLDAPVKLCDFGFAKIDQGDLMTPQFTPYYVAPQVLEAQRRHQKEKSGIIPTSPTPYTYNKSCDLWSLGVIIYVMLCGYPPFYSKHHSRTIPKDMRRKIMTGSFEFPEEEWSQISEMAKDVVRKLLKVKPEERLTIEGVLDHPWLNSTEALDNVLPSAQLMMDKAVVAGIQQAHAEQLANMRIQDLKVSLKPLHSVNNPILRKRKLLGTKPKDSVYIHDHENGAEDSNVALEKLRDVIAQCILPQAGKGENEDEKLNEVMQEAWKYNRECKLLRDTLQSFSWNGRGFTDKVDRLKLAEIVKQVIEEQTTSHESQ
T25 sequence (Q00535 whole entry): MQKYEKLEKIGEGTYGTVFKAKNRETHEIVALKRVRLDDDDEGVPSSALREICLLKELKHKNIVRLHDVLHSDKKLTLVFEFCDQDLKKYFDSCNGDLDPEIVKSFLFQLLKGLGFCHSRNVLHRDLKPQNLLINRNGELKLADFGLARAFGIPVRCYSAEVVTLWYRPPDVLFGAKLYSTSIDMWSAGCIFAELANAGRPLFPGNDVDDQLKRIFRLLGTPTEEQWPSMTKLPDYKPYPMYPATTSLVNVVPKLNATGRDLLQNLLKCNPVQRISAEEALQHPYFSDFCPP
T29 sequence (Q9Y2H9 whole entry): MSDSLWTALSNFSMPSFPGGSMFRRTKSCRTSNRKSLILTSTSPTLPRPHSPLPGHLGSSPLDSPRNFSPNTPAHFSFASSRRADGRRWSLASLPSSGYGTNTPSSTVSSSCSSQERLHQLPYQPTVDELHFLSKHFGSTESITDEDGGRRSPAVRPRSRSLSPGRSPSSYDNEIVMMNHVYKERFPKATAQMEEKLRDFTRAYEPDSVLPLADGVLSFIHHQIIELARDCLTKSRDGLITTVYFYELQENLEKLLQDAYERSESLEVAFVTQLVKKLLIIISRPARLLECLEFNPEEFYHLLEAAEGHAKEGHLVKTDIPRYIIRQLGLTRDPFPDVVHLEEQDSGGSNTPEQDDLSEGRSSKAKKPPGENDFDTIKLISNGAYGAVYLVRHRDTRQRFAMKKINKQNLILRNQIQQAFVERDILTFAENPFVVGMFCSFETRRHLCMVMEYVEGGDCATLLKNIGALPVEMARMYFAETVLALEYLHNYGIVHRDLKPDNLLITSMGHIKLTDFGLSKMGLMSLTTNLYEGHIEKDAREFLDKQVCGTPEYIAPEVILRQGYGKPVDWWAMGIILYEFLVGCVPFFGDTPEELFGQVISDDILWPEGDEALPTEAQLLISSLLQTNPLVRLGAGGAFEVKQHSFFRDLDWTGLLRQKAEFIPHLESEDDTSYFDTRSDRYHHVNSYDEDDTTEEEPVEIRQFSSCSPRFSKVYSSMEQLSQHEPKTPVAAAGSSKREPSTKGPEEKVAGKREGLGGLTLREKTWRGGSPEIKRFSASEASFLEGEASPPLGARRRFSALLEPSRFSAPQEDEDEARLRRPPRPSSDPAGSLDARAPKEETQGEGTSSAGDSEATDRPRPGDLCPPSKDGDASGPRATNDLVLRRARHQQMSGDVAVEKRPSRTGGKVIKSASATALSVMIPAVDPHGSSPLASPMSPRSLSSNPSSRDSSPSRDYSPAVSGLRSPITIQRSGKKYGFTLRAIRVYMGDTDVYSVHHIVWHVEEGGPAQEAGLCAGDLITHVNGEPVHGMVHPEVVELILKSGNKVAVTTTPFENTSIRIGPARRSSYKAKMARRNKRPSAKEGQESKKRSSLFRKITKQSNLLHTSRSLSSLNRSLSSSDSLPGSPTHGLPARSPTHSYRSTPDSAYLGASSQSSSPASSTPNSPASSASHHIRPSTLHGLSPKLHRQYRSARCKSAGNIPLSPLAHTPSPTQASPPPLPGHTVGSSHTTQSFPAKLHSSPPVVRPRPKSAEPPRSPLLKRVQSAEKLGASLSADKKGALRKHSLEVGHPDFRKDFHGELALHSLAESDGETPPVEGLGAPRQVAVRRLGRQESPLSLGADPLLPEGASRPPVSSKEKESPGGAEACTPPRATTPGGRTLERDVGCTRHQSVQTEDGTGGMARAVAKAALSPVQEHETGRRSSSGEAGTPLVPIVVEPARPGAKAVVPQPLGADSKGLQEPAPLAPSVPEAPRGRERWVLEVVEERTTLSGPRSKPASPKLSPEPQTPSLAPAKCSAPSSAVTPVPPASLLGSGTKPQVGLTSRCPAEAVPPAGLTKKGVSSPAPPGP
T20 sequence (Q9Y463 whole entry): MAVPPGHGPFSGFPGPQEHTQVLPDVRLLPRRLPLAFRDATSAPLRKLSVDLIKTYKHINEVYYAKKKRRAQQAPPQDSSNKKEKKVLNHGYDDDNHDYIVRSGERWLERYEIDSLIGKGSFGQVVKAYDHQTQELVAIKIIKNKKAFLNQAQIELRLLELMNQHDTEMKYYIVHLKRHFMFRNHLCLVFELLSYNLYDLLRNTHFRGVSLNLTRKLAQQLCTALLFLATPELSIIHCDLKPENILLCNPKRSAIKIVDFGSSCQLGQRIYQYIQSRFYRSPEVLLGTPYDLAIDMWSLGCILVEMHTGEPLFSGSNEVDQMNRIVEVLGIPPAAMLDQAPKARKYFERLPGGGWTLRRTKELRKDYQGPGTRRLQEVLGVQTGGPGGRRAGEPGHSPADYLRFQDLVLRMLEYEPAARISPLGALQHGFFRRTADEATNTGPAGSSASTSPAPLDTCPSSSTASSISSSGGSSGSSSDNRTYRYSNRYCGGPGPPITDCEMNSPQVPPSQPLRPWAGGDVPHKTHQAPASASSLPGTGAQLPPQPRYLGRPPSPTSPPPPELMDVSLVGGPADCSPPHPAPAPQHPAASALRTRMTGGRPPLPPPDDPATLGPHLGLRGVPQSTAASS
T8 sequence (Q9Y2U5 whole entry): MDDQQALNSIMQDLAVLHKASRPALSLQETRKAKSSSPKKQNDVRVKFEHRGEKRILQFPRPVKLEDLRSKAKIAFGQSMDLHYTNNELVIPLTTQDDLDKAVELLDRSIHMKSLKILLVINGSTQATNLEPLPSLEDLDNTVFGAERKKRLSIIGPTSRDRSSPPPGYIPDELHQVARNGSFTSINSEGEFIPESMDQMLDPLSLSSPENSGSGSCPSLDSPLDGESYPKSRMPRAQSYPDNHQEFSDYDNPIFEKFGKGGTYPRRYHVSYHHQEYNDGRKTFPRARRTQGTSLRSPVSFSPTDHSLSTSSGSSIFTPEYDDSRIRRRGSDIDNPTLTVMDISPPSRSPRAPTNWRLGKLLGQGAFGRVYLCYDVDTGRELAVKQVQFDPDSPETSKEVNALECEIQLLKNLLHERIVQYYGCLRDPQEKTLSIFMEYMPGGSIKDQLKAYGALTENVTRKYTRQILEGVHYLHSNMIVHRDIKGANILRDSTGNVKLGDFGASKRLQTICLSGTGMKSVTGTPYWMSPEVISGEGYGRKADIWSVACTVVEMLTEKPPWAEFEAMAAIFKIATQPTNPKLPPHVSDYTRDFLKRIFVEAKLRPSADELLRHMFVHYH

## CN1CCN(C2CCC(n3cc(-c4ccc(Oc5ccccc5)cc4)c4c(N)ncnc43)CC2)CC1 (stereo not drawn) [A-419259]
[1]
  % Control: 5.3%
[2]
  % Control: 5.3%
[3]
  % Control: 30%
[4]
  % Control: 6.9%
[5]
  % Control: 67%
[6]
  % Control: 99%
[7]
  % Control: 100%
[8]
  % Control: 1.7%
[9]
  % Control: 0.1%
[10]
  % Control: 3.4%
[11]
  % Control: 91%
[12]
  % Control: 100%
[13]
  % Control: 88%
[14]
  % Control: 5.8%
[15]
  % Control: 100%
[16]
  % Control: 0.2%
[17]
  % Control: 87%
[18]
  % Control: 90%
[19]
  % Control: 100%
[20]
  % Control: 21%
[21]
  % Control: 94%
[22]
  % Control: 90%
[23]
  % Control: 29%
[24]
  % Control: 100%
[25]
  % Control: 83%
[26]
  % Control: 100%
[27]
  % Control: 2.1%
[28]
  % Control: 26%
[29]
  % Control: 64%
[30]
  % Control: 100%
[31]
  % Control: 27%
[32]
  % Control: 65%
[33]
  % Control: 32%
[34]
  % Control: 9.2%
[35]
  % Control: 95%
[36]
  % Control: 77%
[37]
  % Control: 100%
[38]
  % Control: 83%
[39]
  % Control: 100%
[40]
  % Control: 100%
[41]
  % Control: 100%
[42]
  % Control: 30%
